Results taken from patent US20130065969A9, “Odour Compounds” (priority 2009, published 2013).

Tests used:
[1] = Vapour pressure by saturated headspace trapping and GC quantification; format: physicochemical; details: headspace concentration at constant 25° C., mean of three independent measurements
Protocol: For each compound the vapour pressure was determined via the following procedure: 500 mg of the test compound was added to a headspace container which was then scaled. The container was incubated at constant 25° C. until the compound reached equilibrium between the gas and the liquid phase. An exactly defined but variable volume between 0.5-1.0 L of this saturated headspace was trapped on a micro filter using Porapak Q as sorbent. After filter extraction with 30-100 μl methyl tert.-butyl ether), an aliquot of the extract was analyzed by gas chromatograph (GC). Quantification was performed by the external standard calibration method. The concentration in the original headspace was calculated (in terms of μg/l) from the headspace volume sucked through the micro filter and the aliquot of the filter extract injected into the gas chromatograph. The final headspace concentration value for a given test compound was obtained as the mean value of three independent measurements.
Further information of the technique described hereinabove may be found in the article of F. Etzweiler, E. Senn, N. Neuner-Jehle, Ber. Bunsen-Ges. Phys. Chem. 1984, 88, 578.

[2] = Odour threshold by GC detection at the sniffing port (panel of 5 persons); details: mean of individual thresholds of 5 panelists
Protocol: For each compound the odour threshold value was determined by gas chromatograph (GC) detection. […] Each panelist (panel of 5 persons) smelled blind and pressed a button upon perceiving an odor. If the recorded time matched the retention time, the sample was further diluted. The last quantity detected at the correct retention time was the panelist's individual odor threshold. The final threshold value for a given test compound was obtained as the mean value of the individual threshold levels.
Further information of the technique described hereinabove may be found in N. Neuner-Jehle, F. Etzweiler. ‘Measuring of Odors’, in P. Müller. D. Lamparsky (Eds,). ‘Perfumes. Art, Science and Technology’, Elsevier Appl. Science Publ., London. 1991: pp. 153.

SMILES | Vapour Pressure [1] | Odour Threshold [2]
CC/C(=C\C(C)C)C(C)OC(C)(C)COC(=O)C1CCC1 (centres unmarked) [Example 4, (3″E)-2′-(3″-Ethyl-5″-methylhex-3″-en-2″-yloxy)-2′-methylpropyl cyclobutanecarboxylate] | 4.76 µg/L | 
CC/C(=C\C(C)C)C(C)OC(C)(C)COC(=O)C1CC1 (centres unmarked) [Example 2, (3″E)-2′-(3″-Ethyl-5″-methylhex-3″-en-2″yloxy)-2′-methylpropyl cyclopropanecarboxylate] | 10.61 µg/L | 2.2 ng/L
C/C(=C\C(C)C)C(C)OC(C)(C)COC(=O)C1CC1 (centres unmarked) [(3″E)-2-(3,5-Dimethylhex-3-en-2-yloxy)-2-methylpropyl cyclopropanecarboxylate, reference compound] | 27.57 µg/L | 5.9 ng/L
